{"source": "patent US20030229030A1", "about": "“Method of treating interleukin-6-mediated inflammatory diseases” (priority 2002, published 2003)", "molecules": {"B1": {"name": "IL-10: interleukin-10 (protein, UniProt P22301 19-178, looked up)", "Interleukin-10": "SPGQGTQSENSCTHFPGNLPNMLRDLRDAFSRVKTFFQMKDQLDNLLLKESLLEDFKGYLGCQALSEMIQFYLEEVMPQAENQDPDIKAHVNSLGENLKTLRLRLRRCHRFLPCENKSKAVEQVKNAFNKLQEKGIYKAMSEFDIFINYIEAYMTMKIRN"}}, "key": {"[1]": {"system": "IL-6 secretion from hCBMC", "test": "IL-6 secretion from human cord blood-derived mast cells (hCBMC), ELISA", "type": "cell-based", "settings": "for secretion of IL-6 (FIG. 3): n=4", "description": "(§1) Human cord blood-derived mast cells (HCBMC) were grown from CD34+ progenitor mononuclear umbilical cells isolated from umbilical cord blood by positive selection of AC133 (CD 133+/CD34+high) cells by magnetic cell sorting (Miltenyi Biotec, Auburn, Calif.). CD34+ cells were then cultured in Isocove's Modified Dulbecco's Medium (1MDM) containing 100 ng/ml Stem Cell Factor (from Amgen, Thousand Oaks, Calif.) plus test components in 10% FBS at 37° C. in 5% CO2 balanced air. By 10 weeks, 95% of the cells in culture could be identified as mast cells by immuno-staining for tryptase. hCBMC were washed three times in PBS and resuspended in culture medium (1×10^5 cells/200 ul sample). Test substances, e.g., IL-1 were added and cells were incubated at 37° C. in 5% CO2 for six hours for dose-response experiments or for the indicated times in time-course experiments. IL-6 and tryptase were measured in cell-free supernatant fluids by ELISA (R&D Systems, Minneapolis, Minn.) and fluoroenzymeimmunoassay (Pharmacia, Uppsala, Sweden), respectively.\n(§2) Dose-response of IL-6 and tryptase secretion from hCBMC and HMC-1 cells were tested after stimulation for six hours with indicated concentrations of IL-1 or other stimuli. Time-course of IL.6 production induced by 50 ng/ml of IL-1 a from CBMC or by 10 ng/ml IL-1 from HMC-1 cells could be tested.\nThe data in general represent means +/− standard error of the mean from 3 to 4 experiments done in duplicate for each cell type used."}, "[2]": {"system": "TNF-α production from rat peritoneal macrophages", "test": "TNF-α production from LPS-stimulated rat peritoneal macrophages", "type": "cell-based", "settings": "rat macrophages stimulated by LPS; quercetin dihydrate 100 μM, 10 mins prior to stimulus, 6 hrs", "description": "(§3) In this experiment, the effect of quercetin on the production of IL-6 and TNF-a from rat peritoneal macrophages and human mast cells that are involved in inflammation was studied. [table]"}, "[3]": {"system": "IL-6 production from rat peritoneal macrophages", "test": "IL-6 production from LPS-stimulated rat peritoneal macrophages", "type": "cell-based", "settings": "rat macrophages stimulated by LPS; quercetin dihydrate 100 μM, 10 mins prior to stimulus, 6 hrs", "description": "as §3"}, "[4]": {"system": "TNF-α production from human mast cells (hCBMC)", "test": "TNF-α production from hCBMC stimulated by IgE and anti-IgE", "type": "cell-based", "settings": "quercetin dihydrate 100 μM, 10 mins prior to stimulus, 6 hrs", "description": "as §3"}, "[5]": {"system": "IL-6 secretion from HMC-1 cells", "test": "IL-6 secretion from HMC-1 human leukemic mast cells", "type": "cell-based", "settings": "quercetin 10 μM, IL-10 2 ng/ml", "description": "Human leukemic mast cells (HMC-1) was obtained from Dr. Butterfield (Mayo Clinic, Rochester, Minn.), and cultured in IMDM medium supplemented with 10% FBS, PBS and 2 μM alpha.thioglycerol. HCBMC or HMC-I cells 2×10^5/200 μl sample were stimulated in full culture medium as indicated.\nas §2\nThe effect of IL-10 on HMC-1 leukemic cells producing IL-6, especially cells stimulated by IL-1 that induces selective release of IL-6, was studied alone or together with a flavonoid compound."}, "[6]": {"system": "IL-6 secretion from human mast cells", "test": "IL-6 production and secretion from human mast cells, quercetin alone or with IL-1", "type": "cell-based", "description": "as §1\nIn this experiment, the effects of quercetin, alone or together with IL-1, on the production and secretion of IL-6 from human mast cells was studied."}, "[7]": {"system": "tryptase secretion from hCBMC", "test": "Tryptase secretion from hCBMC mast cell granules, fluoroenzymeimmunoassay", "type": "cell-based, human", "settings": "stimulus alone: CRH 5 × 10^−5M, IL-1 50 ng/ml, anti-IgE 10 μg/ml", "description": "as §1\nDose-response of IL-6 and tryptase secretion from hCBMC and HMC-1 cells were tested after stimulation for six hours with indicated concentrations of IL-1 or other stimuli. Time-course of IL.6 production induced by 50 ng/ml of IL-1 a from CBMC or by 10 ng/ml IL-1 from HMC-1 cells could be tested. […]"}, "[8]": {"settings": "hCBMC + anti-IgE, azelastine 1 μM, quercetin 10 μM"}, "[9]": {"settings": "hCBMC, substance alone: anti-IgE, azelastine 1 μM, quercetin 10 μM"}, "[10]": {"settings": "HMC-1, substance alone: IL-1 50 ng/ml"}, "[11]": {"settings": "IL-1 50 ng/ml + quercetin 10 μM"}, "[12]": {"settings": "IL-1 50 ng/ml + quercetin 100 μM"}}, "note": "Several values for one entry are separate records, joined by “and”; a condition that tells them apart may be missing. Equal entries are not always repeated. Marks after values point to notes of the source that are not given here. Ends that are not written are not given here."}
{"molecule": "CN1CCCC(n2nc(Cc3ccc(Cl)cc3)c3ccccc3c2=O)CC1", "note": "(centres unmarked) [Azelastine, reference compound]", "values": [{"measurement": "inhibition of IL-6 secretion from hCBMC", "setting": "[1]; azelastine at concentrations below 1 μM", "value": "ineffective"}, {"measurement": "IL-6 (pg/ml/5 × 105cells)", "setting": "[1]; [8]", "value": 30.6, "unit": "pg/ml/5 × 105cells"}, {"measurement": "inhibition of IL-6 secretion from hCBMC (FIG. 4)", "setting": "[1]; hCBMC + anti-IgE, dose-dependent", "value": "potent inhibitor"}, {"measurement": "IL-6 secretion (FIG. 4)", "setting": "[1]; hCBMC, azelastine 60 μM", "value": "below control levels"}, {"measurement": "IL-6 (pg/ml/5 × 105cells)", "setting": "[1]; [9]", "value": 11.9, "unit": "pg/ml/5 × 105cells"}]}
{"molecule": "O=c1c(O)c(-c2ccc(O)cc2O)oc2cc(O)cc(O)c12", "note": "[Morin, reference compound]", "values": [{"measurement": "secretion of IL-6 (FIG. 3)", "setting": "[1]; hCBMC + anti-IgE, morin (100-0.01 μM listed)", "value": "only a small effect"}]}
{"molecule": "O=c1c(O)c(-c2ccc(O)c(O)c2)oc2cc(O)cc(O)c12", "note": "[Quercetin, quercetin]", "values": [{"measurement": "IL-6 (pg/ml/5 × 105cells)", "setting": "[1]; [8]", "value": 21.4, "unit": "pg/ml/5 × 105cells"}, {"measurement": "Inhibition (% total)", "setting": "[1]; [8]", "value": 32.9, "unit": "% total"}, {"measurement": "secretion of IL-6 (FIG. 3)", "setting": "[1]; hCBMC + anti-IgE, three lower concentrations of quercetin (1, 0.1, 0.01 μM)", "value": "only slightly reduced"}, {"measurement": "secretion of IL-6 (FIG. 3)", "setting": "[1]; hCBMC + anti-IgE, two highest concentrations of quercetin (100, 10 μM)", "value": "greatly reduced"}, {"measurement": "Inhibition (% of total) IL-6", "setting": "[1]; hCBMC stimulated by IgE and anti-IgE, quercetin dihydrate 100 μM, 10 mins prior to stimulus, 6 hrs", "value": "95.8 % of total"}, {"measurement": "secretion of IL-6 from mast cells stimulated by anti-IgE", "setting": "[1]; hCBMC, 0.1 mM quercetin 30 mins, then anti-IgE 6 hrs, replicated 6 times", "value": "profoundly inhibited"}, {"measurement": "IL-6 (pg/10^6 cells)", "setting": "[1]; hCBMC, quercetin 0.1 mM alone, no anti-IgE", "value": 10.8, "unit": "pg/10^6 cells"}, {"measurement": "IL-6 (pg/10^6 cells)", "setting": "[1]; hCBMC, quercetin 0.1 mM for 10 mins prior to addition of anti-IgE", "value": 50.5, "unit": "pg/10^6 cells"}, {"measurement": "IL-6 (pg/ml/5 × 105cells)", "setting": "[1]; [9]", "value": 9.8, "unit": "pg/ml/5 × 105cells"}, {"measurement": "Inhibition (% of total) TNF-α", "setting": "[2]", "value": "88.3 % of total"}, {"measurement": "Inhibition (% of total) IL-6", "setting": "[3]", "value": "96.3 % of total"}, {"measurement": "Inhibition (% of total) TNF-α", "setting": "[4]", "value": "78.3 % of total"}, {"measurement": "IL-6 (pg/ml/10^5 cells)", "setting": "[5]; HMC-1 + IL-1 (50 ng/ml)", "value": 299.0, "unit": "pg/ml/10^5 cells"}, {"measurement": "Inhibition (% total)", "setting": "[5]; HMC-1 + IL-1 (50 ng/ml)", "value": 5.37, "unit": "% total"}, {"measurement": "IL-6 (pg/ml/10^5 cells)", "setting": "[5]; [10]", "value": 79.8, "unit": "pg/ml/10^5 cells"}, {"measurement": "IL-6 (pg/ml/5 × 10^5 cells)", "setting": "[6]; [11]", "value": 300.1, "unit": "pg/ml/5 × 10^5 cells"}, {"measurement": "Inhibition (% total)", "setting": "[6]; [11]", "value": "32.7* % total"}, {"measurement": "IL-6 (pg/ml/5 × 10^5 cells)", "setting": "[6]; [12]", "value": 150.4, "unit": "pg/ml/5 × 10^5 cells"}, {"measurement": "Inhibition (% total)", "setting": "[6]; [12]", "value": "82.0* % total"}, {"measurement": "IL-6 (pg/ml/5 × 10^5 cells)", "setting": "[6]; quercetin 10 μM alone", "value": 74.9, "unit": "pg/ml/5 × 10^5 cells"}, {"measurement": "IL-6 (pg/ml/5 × 10^5 cells)", "setting": "[6]; quercetin 100 μM alone", "value": 56.1, "unit": "pg/ml/5 × 10^5 cells"}]}
{"molecule": "CRH: corticotropin-releasing hormone (SEEPPISLDLTFHLLREVLEMARAEQLAQQAHSNRKLMEII; ends and bridges not checked; UniProt P06850 154-194, looked up)", "values": [{"measurement": "IL-6 (pg/ml/5 × 10^6 cells)", "setting": "[1]; hCBMC, stimulus alone: CRH 5 × 10^−5M, IL-1 50 ng/ml, anti-IgE 10 μg/ml", "value": "33.3 +/− 3.5 pg/ml/5 × 10^6 cells"}, {"measurement": "Tryptase % total", "setting": "[7]", "value": "4.20 % total and 4.26 % total"}]}
{"molecule": "B1", "values": [{"measurement": "IL-6 (pg/ml/10^5 cells)", "setting": "[5]; HMC-1 + IL-1 (50 ng/ml)", "value": 275.9, "unit": "pg/ml/10^5 cells"}, {"measurement": "Inhibition (% total)", "setting": "[5]; HMC-1 + IL-1 (50 ng/ml)", "value": 31.32, "unit": "% total"}, {"measurement": "IL-6 (pg/ml/10^5 cells)", "setting": "[5]; [10]", "value": 85.6, "unit": "pg/ml/10^5 cells"}]}
